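Compound exposure: 48 hours, 5 concentrations, 96-well plates. GI50: concentration for 50% inhibition of growth. TGI: total growth inhibition.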
Key:
Test in all cases: NCI anticancer screen, dose series, 48 h
[1] = system: 786-0 renal
[2] = system: A498 renal
[3] = system: A549 NSCLC
[4] = system: ACHN renal
[5] = system: CCRF-CEM leukemia
[6] = system: COLO 205 colon
[7] = system: DLD-1 colon
[8] = system: DMS 273 small cell lung
[9] = system: EKVX NSCLC
[10] = system: HCC-2998 colon
[11] = system: HCT-116 colon
[12] = system: HCT-15 colon
[13] = system: HOP-62 NSCLC
[14] = system: HOP-92 NSCLC
[15] = system: HT29 colon
[16] = system: IGROV1 ovarian
[17] = system: K-562 leukemia
[18] = system: KM12 colon
[19] = system: KM20L2 colon
[20] = system: LOX IMVI melanoma
[21] = system: LXFL 529 NSCLC
[22] = system: M14 melanoma
[23] = system: MALME-3M melanoma
[24] = system: MOLT-4 leukemia
[25] = system: NCI-H23 lung
[26] = system: NCI-H460 lung
[27] = system: NCI-H522 lung
[28] = system: OVCAR-3 ovarian
[29] = system: OVCAR-4 ovarian
[30] = system: OVCAR-5 ovarian
[31] = system: OVCAR-8 ovarian
[32] = system: RPMI-8226 leukemia
[33] = system: SF-268 CNS
[34] = system: SF-295 CNS
[35] = system: SF-539 CNS
[36] = system: SK-MEL-2 melanoma
[37] = system: SK-MEL-28 melanoma
[38] = system: SK-MEL-5 melanoma
[39] = system: SK-OV-3 ovarian
[40] = system: SN12C renal
[41] = system: SNB-19 CNS
[42] = system: SNB-75 CNS
[43] = system: SNB-78 CNS
[44] = system: SW-620 colon
[45] = system: TK-10 renal
[46] = system: U251 CNS
[47] = system: UACC-257 melanoma
[48] = system: UACC-62 melanoma
[49] = system: UO-31 renal

CC(C)CC(=O)[O-].N.N.N.N.N.[Co+3].[O-][Cl+3]([O-])([O-])[O-]
GI50 [1]: > 100 µM | TGI [1]: > 100 µM | GI50 [2]: > 100 µM | TGI [2]: > 100 µM | GI50 [3]: > 100 µM | TGI [3]: > 100 µM | GI50 [4]: > 100 µM | TGI [4]: > 100 µM | GI50 [5]: > 100 µM | TGI [5]: > 100 µM | GI50 [6]: > 100 µM | TGI [6]: > 100 µM | GI50 [7]: > 100 µM | TGI [7]: > 100 µM | GI50 [8]: > 100 µM | TGI [8]: > 100 µM | GI50 [9]: > 100 µM | TGI [9]: > 100 µM | GI50 [10]: > 100 µM | TGI [10]: > 100 µM | GI50 [11]: > 100 µM | TGI [11]: > 100 µM | GI50 [12]: > 100 µM | TGI [12]: > 100 µM | GI50 [13]: > 100 µM | TGI [13]: > 100 µM | GI50 [14]: > 100 µM | TGI [14]: > 100 µM | GI50 [15]: > 100 µM | TGI [15]: > 100 µM | GI50 [16]: > 100 µM | TGI [16]: > 100 µM | GI50 [17]: > 100 µM | TGI [17]: > 100 µM | GI50 [18]: > 100 µM | TGI [18]: > 100 µM | GI50 [19]: > 100 µM | TGI [19]: > 100 µM | GI50 [20]: > 100 µM | TGI [20]: > 100 µM | GI50 [21]: > 100 µM | TGI [21]: > 100 µM | GI50 [22]: > 100 µM | TGI [22]: > 100 µM | GI50 [23]: > 100 µM | TGI [23]: > 100 µM | GI50 [24]: 70.8 µM | TGI [24]: > 100 µM | GI50 [25]: > 100 µM | TGI [25]: > 100 µM | GI50 [26]: > 100 µM | TGI [26]: > 100 µM | GI50 [27]: > 100 µM | TGI [27]: > 100 µM | GI50 [28]: > 100 µM | TGI [28]: > 100 µM | GI50 [29]: > 100 µM | TGI [29]: > 100 µM | GI50 [30]: > 100 µM | TGI [30]: > 100 µM | GI50 [31]: > 100 µM | TGI [31]: > 100 µM | GI50 [32]: > 100 µM | TGI [32]: > 100 µM | GI50 [33]: > 100 µM | TGI [33]: > 100 µM | GI50 [34]: > 100 µM | TGI [34]: > 100 µM | GI50 [35]: > 100 µM | TGI [35]: > 100 µM | GI50 [36]: > 100 µM | TGI [36]: > 100 µM | GI50 [37]: > 100 µM | TGI [37]: > 100 µM | GI50 [38]: > 100 µM | TGI [38]: > 100 µM | GI50 [39]: > 100 µM | TGI [39]: > 100 µM | GI50 [40]: > 100 µM | TGI [40]: > 100 µM | GI50 [41]: > 100 µM | TGI [41]: > 100 µM | GI50 [42]: 22 µM | TGI [42]: > 100 µM | GI50 [43]: > 100 µM | TGI [43]: > 100 µM | GI50 [44]: > 100 µM | TGI [44]: > 100 µM | GI50 [45]: > 100 µM | TGI [45]: > 100 µM | GI50 [46]: > 100 µM | TGI [46]: > 100 µM | GI50 [47]: > 100 µM | TGI [47]: > 100 µM | GI50 [48]: > 100 µM | TGI [48]: > 100 µM | GI50 [49]: 85.7 µM | TGI [49]: > 100 µM

— PubChem BioAssay (NCI)
